Data reported in ChEMBL document CHEMBL1833972 (Bioorg Med Chem Lett, 2011).
In brackets after ≈: the same amount, converted by molar mass.

Legend:
[1] = Solubility of the compound; type: physicochemical
in vitro [2] = conditions: human, liver microsomes
in vitro [3] = conditions: rat, liver microsomes
[4] = Lipophilicity, log D of the compound; type: physicochemical; conditions: octanol/water
[5] = Thermodynamic solubility of compound at physiological pH; type: physicochemical; conditions: read-out: Therm_solubility
in vitro [6] = conditions: rat, cytosol

| Compound | solubility [1] | microsomal CLint (in vitro [2]) | microsomal CLint (in vitro [3]) | logD [4] | solubility thermodynamic [5] | half-life (in vitro [6]) |
| --- | --- | --- | --- | --- | --- | --- |
| CN1CCN(CC2CCCN2c2ccc(Cn3c(=O)[nH]c4c(N)nc(C(F)(F)F)cc43)cn2)CC1 (stereo unspecified) | soluble | – | – | – | – | – |
| Nc1nc(C(F)(F)F)cc2c1[nH]c(=O)n2Cc1ccc(N2CCC[C@H]2CN2CCCC2)nc1 | soluble | – | – | – | – | – |
| Nc1nc(C(F)(F)F)cc2c1[nH]c(=O)n2Cc1cccnc1OCCN1CCCC1 | soluble | – | – | – | – | – |
| COCCCN1CCN(c2ncccc2Cn2c(=O)[nH]c3c(N)nc(C(F)(F)F)cc32)CC1 | soluble | – | – | – | – | – |
| COCCN1CCN(c2ncccc2Cn2c(=O)[nH]c3c(N)nc(C(F)(F)F)cc32)CC1 | soluble | – | – | – | – | – |
| CN1CCN(CC2CCCN2c2ncccc2Cn2c(=O)[nH]c3c(N)nc(C(F)(F)F)cc32)CC1 (stereo unspecified) | soluble | – | – | – | – | – |
| Nc1nc(C(F)(F)F)cc2c1[nH]c(=O)n2Cc1cccnc1N1CCC[C@H]1CN1CCCC1 | soluble | – | – | – | – | – |
| Nc1nc(C(F)(F)F)cc2c1[nH]c(=O)n2Cc1ccnc(OCCN2CCCC2)c1 | soluble | – | – | – | – | – |
| COCCCN1CCN(c2cc(Cn3c(=O)[nH]c4c(N)nc(C(F)(F)F)cc43)ccn2)CC1 | soluble | – | – | – | – | – |
| COCCN1CCN(c2cc(Cn3c(=O)[nH]c4c(N)nc(C(F)(F)F)cc43)ccn2)CC1 | soluble | – | – | – | – | – |
| CN1CCN(CC2CCCN2c2cc(Cn3c(=O)[nH]c4c(N)nc(C(F)(F)F)cc43)ccn2)CC1 (stereo unspecified) | soluble | – | – | – | – | – |
| Nc1nc(C(F)(F)F)cc2c1[nH]c(=O)n2Cc1ccnc(N2CCC[C@H]2CN2CCCC2)c1 | soluble | – | – | – | – | – |

Continued, values first:

| solubility [1] | microsomal CLint (in vitro [2]) | microsomal CLint (in vitro [3]) | logD [4] | solubility thermodynamic [5] | half-life (in vitro [6]) | Compound |
| --- | --- | --- | --- | --- | --- | --- |
| soluble | – | – | – | – | – | COCCCN1CCN(c2ccc(Cn3c(=O)[nH]c4c(N)nc(C(F)(F)F)cc43)cn2)CC1 |
| – | 22 µL/min/mg | 24 µL/min/mg | 1.2 | – | – | CN(C)CCOc1ccc(Cn2c(=O)[nH]c3c(N)nc(C(F)(F)F)cc32)cn1 |
| – | 9 µL/min/mg | 16 µL/min/mg | 0.7 | 483 µg/mL (≈ 1220 µM) | 6.17 h | CN(C)CCNc1ccc(Cn2c(=O)[nH]c3c(N)nc(C(F)(F)F)cc32)cn1 |
| soluble | 10 µL/min/mg | 9 µL/min/mg | 1.2 | – | – | Nc1nc(C(F)(F)F)cc2c1[nH]c(=O)n2Cc1ccc(OCCN2CCCC2)nc1 |
| – | 8.5 µL/min/mg | < 8.5 µL/min/mg | 0.8 | – | – | Nc1nc(C(F)(F)F)cc2c1[nH]c(=O)n2Cc1ccc(NCCN2CCCC2)nc1 |
| – | 16 µL/min/mg | 11 µL/min/mg | 1.2 | – | – | CN(C)CCN(C)c1ccc(Cn2c(=O)[nH]c3c(N)nc(C(F)(F)F)cc32)cn1 |
| soluble | 17 µL/min/mg | 9 µL/min/mg | 2.3 | – | – | COCCN1CCN(c2ccc(Cn3c(=O)[nH]c4c(N)nc(C(F)(F)F)cc43)cn2)CC1 |
| – | < 8 µL/min/mg | < 8.5 µL/min/mg | 0.9 | – | – | CN(C)CCN1CCN(c2ccc(Cn3c(=O)[nH]c4c(N)nc(C(F)(F)F)cc43)cn2)CC1 |
| – | 25 µL/min/mg | 13 µL/min/mg | 1.8 | – | – | CN(CCN1CCCCC1)c1ccc(Cn2c(=O)[nH]c3c(N)nc(C(F)(F)F)cc32)cn1 |
| – | 24 µL/min/mg | 11 µL/min/mg | 1.3 | – | – | CCN(CC)CCN(C)c1ccc(Cn2c(=O)[nH]c3c(N)nc(C(F)(F)F)cc32)cn1 |
| – | 25 µL/min/mg | 15 µL/min/mg | 1.5 | – | – | CN1CCN(CCN(C)c2ccc(Cn3c(=O)[nH]c4c(N)nc(C(F)(F)F)cc43)cn2)CC1 |
| – | 13 µL/min/mg | 16 µL/min/mg | 1.3 | – | – | Nc1nc(C(F)(F)F)cc2c1[nH]c(=O)n2Cc1ccc(NCCN2CCCCC2)nc1 |
| – | < 8 µL/min/mg | < 8.5 µL/min/mg | 1.6 | – | 3.27 h | Nc1nc(C(F)(F)F)cc2c1[nH]c(=O)n2Cc1ccc(NCCO)nc1 |
| – | < 8 µL/min/mg | 16 µL/min/mg | 1.8 | – | 4.17 h | Nc1nc(C(F)(F)F)cc2c1[nH]c(=O)n2Cc1ccc(NCc2ccccc2)nc1 |
| soluble | – | – | – | – | – | COCCNc1ncccc1Cn1c(=O)[nH]c2c(N)nc(C(F)(F)F)cc21 |
| soluble | – | – | – | – | – | COCCNc1cc(Cn2c(=O)[nH]c3c(N)nc(C(F)(F)F)cc32)ccn1 |
| soluble | – | – | – | – | – | COCCNc1ccc(Cn2c(=O)[nH]c3c(N)nc(C(F)(F)F)cc32)cn1 |
